Read-outs that look alike come from different tables or passages of the source.

The record followed here is patent US4369325A, “1,3-Diaryl-2-imino-imidazolidines and compounds” (EGYT Gyogyszervegyeszeti Gyar, priority 1978, dated 1983).

A short description of data set [1]: antiphlogistic effect (test not specified). Particulars: in vivo.
The test system of data set [2] is sodium:potassium ratio of the urine. The data set can be described thus: saluretic / DOCA-antagonizing effect, method of Kagawa (sodium:potassium ratio of the urine). The data set is classed as in vivo, rats. Particulars: for potassium-retentive diuretic effect: in words. The source says:
This means that these compounds promote the excretion of sodium ions to a far greater extent than that of potassium ions, thus the sodium:potassium ratio measured in the urine is favourably high. The saluretic effect was examined on rats according to the method of Kagawa (J. Pharm. Exp. Ther. 126, 123 /1959/). The sodium:potassium ratio of the urine was decreased experimentally by introducing deoxycorticosterone acetate (DOCA) into the animals, and the DOCA-antagonizing effects of the compounds were measured. The effects of the two new compounds examined in this test were essentially the same as that of Spironolactone, utilized as reference substance.

Data set [3] has as its system cotton granuloma. The data set can be described thus: cotton granuloma test. The note with it: in vivo.
Data set [4] has as its system histamine receptors. Kind of data set: blocking of histamine receptors. The source says: (§1) 1,3-Bis(2',6'-dimethylphenyl)-2-imino-4-methyl-imidazoline fumarate is far more advantageous than Indomethacine also with regard to its toxicological properties. […] Based on the above, the new compound according to the invention can be applied in the treatment of inflammatory disorders with a far greater degree of safety than Indomethacine.

Data set [5] has as its system gastric acid secretion. Kind of data set: gastric acid secretion. Particulars: in vivo.
Text: as §1

The test system of data set [6] is adjuvant arthritis. The data set can be described thus: adjuvant arthritis test. Particulars: in vivo.
Data set [7] relates to carrageenin-induced plantar oedema. The data set can be described thus: carrageenin-induced plantar oedema test. Particulars: Rattus norvegicus, read-out: ED50 value, carrageenin-induced plantar oedema test. It is filed as in vivo, rats. On the technique in general: The carrageenan paw model is a standard test of acute inflammation.
The nature of data set [8]: LD50 determined on rats after oral administration. The note with it: rat, in vivo.
Text: as §1

For data set [9] the following is noted: in vivo.
Text: as §1

Data set [10] deals with prostaglandine synthetase enzyme. The data set can be described thus: inhibition of prostaglandine synthetase enzyme. The data set is classed as biochemical.
Text: as §1

The subject of data set [11] is serotonine receptors. The data set can be described thus: blocking of serotonine receptors.
Text: as §1

In data set [12] the test system is urine excretion. Kind of data set: Lipschitz test, urine excretion of rats. It is filed as in vivo. Particulars: for Urine: 5 hr, control 5.82. The source says:
Some of the compounds according to the invention also exert favourable diuretic effects.

Data set [13] concerns longitudinal smooth muscle of guinea pig ileum. Kind of data set: spontaneous activity of the longitudinal smooth muscle of guinea pig ileum in vitro.
In data set [14] the test system is isolated rat uterine horn. The data set can be described thus: spontaneous activity of isolated rat uterine horn in vitro.
Where [15] appears, read: second experiment, 480 μg/animal p.o. with hormone substitution (DOCA) 12.5 μg/animal s.c.
Setting [16] is: first experiment, 480 μg/animal p.o. with hormone substitution (DOCA) 12.5 μg/animal s.c.

Regarding `CC1CN(c2ccc(Cl)cc2)C(=N)N1c1ccc(Cl)cc1` (centres unmarked) [1,3-Bis(4'-chlorophenyl)-2-imino-4-methyl-imidazolidine], the antiphlogistic effects entry in [1] is “significant antiphthlogistic effects”.
Consider `CC(=O)OCC(=O)[C@H]1CC[C@H]2[C@@H]3CCC4=CC(=O)CC[C@]4(C)[C@H]3CC[C@]12C` [DOCA, deoxycorticosterone acetate, reference compound], for which the “Effects*” value in data set [2] (first experiment, DOCA alone, 12.5 μg/animal s.c.) is recorded as 0.75; in [2] (second experiment, DOCA alone, 12.5 μg/animal s.c.) it was 0.88.
In the case of `Cc1cccc(C)c1N1CC(CCl)N(c2c(C)cccc2C)C1=N` (centres unmarked) [1,3-Bis(2',6'-dimethylphenyl)-2-imino-4-chloromethyl-imidazolidine], the antiphlogistic effects entry in data set [1] is listed as “significant antiphthlogistic effects”.
Regarding `CCOC(=O)N=C1N(c2c(C)cccc2C)CC(C)N1c1c(C)cccc1C` (centres unmarked) [1,3-Bis(2',6'-dimethylphenyl)-2-carbethoxyimino-4-methyl-imidazolidine], the “Effects*” value in data set [2] (setting [15]) was found to be 1.19.
In the case of `Cc1cccc(N2CC(C)N(c3ccc(Cl)cc3)C2=N)c1C` (centres unmarked) [1-(2',3'-Dimethylphenyl)-2-imino-3-(4'-chlorophenyl)-4-methyl-imidazolidine], the potassium-retentive diuretic effect entry in [2] was “also exert potassium-retentive diuretic effect, they are, however, less effective than the compounds listed in Table 2”.
As for `Cc1cccc(C)c1N1C(=N)N(c2c(C)cccc2C)[C@@H](C)[C@H]1C` [1,3-Bis(2',6'-dimethylphenyl)-2-imino-4,5-cis-dimethylimidazolidine], the potassium-retentive diuretic effect entry in data set [2] was “also exert potassium-retentive diuretic effect, they are, however, less effective than the compounds listed in Table 2”.
In general, ED50 refers to the midpoint of the dose-response relation. One may read the LD50 as the dose at which mortality reaches 50%. Consider `Cc1cccc(C)c1N1CC(C)N(c2c(C)cccc2C)C1=N.O=C(O)/C=C/C(=O)O` (centres unmarked) [1,3-bis(2',6'-dimethylphenyl)-2-imino-4-methyl-imidazolidine fumarate], for which the “activity in the cotton granuloma test” value in data set [3] is given as “considerable activity”. In addition, the “connection of the antiphlogistic effect with blocking of histamine receptors” value in data set [4] is “not connected with the blocking of serotonine or histamine receptors”. In addition, the gastric acid secretion entry in data set [5] is given as “decreases gastric acid secretion to a medium degree”. Also, the “activity in the adjuvant arthritis test” value in data set [6] is “considerable activity”. The ED50 in data set [7] (rats, oral administration) was 11 mg/kg. In data set [8], the LD50 is 150 mg/kg. For the same compound, the ulcerogeneous side effect result in data set [9] was “far lower than that of Indomethacine”. For the same compound, the “inhibition of prostaglandine synthetase enzyme” value in data set [10] is “does not inhibit the function of prostaglandine synthetase enzyme”. Moreover, the “connection of the antiphlogistic effect with blocking of serotonine receptors” value in [11] is “not connected with the blocking of serotonine or histamine receptors”.
Turning to `Cc1cccc(C)c1N1C(=N)N(c2ccc(Cl)cc2)CC1C` (centres unmarked) [1-(4'-Chlorophenyl)-2-imino-3-(2',6'-dimethylphenyl)-4-methyl-imidazolidine], the antiphlogistic effects result in [1] was “significant antiphthlogistic effects”.
Take `COc1ccc(COC(=O)N=C2N(c3c(C)cccc3C)CC(C)N2c2c(C)cccc2C)cc1` (centres unmarked) [1,3-Bis(2',6'-dimethylphenyl)-2-(p-methoxy-benzyloxycarbonyl)-imino-4-methyl-imidazolidine]: in [2], the potassium-retentive diuretic effect result is recorded as “strong potassium-retentive diuretic effect”.
Take `Cc1cccc(C)c1N1CC(C(=O)O)N(c2c(C)cccc2C)C1=N` (centres unmarked) [1,3-Bis(2',6'-dimethylphenyl)-2-imino-imidazolidine-4-carboxylic acid]: the antiphlogistic effects entry in data set [1] is on record as “significant antiphthlogistic effects”.
With `COC(=O)C1CN(c2c(C)cccc2C)C(=N)N1c1c(C)cccc1C` (centres unmarked) [Methyl 1,3-bis(2',6'-dimethylphenyl)-2-imino-imidazolidine-4-carboxylate], the potassium-retentive diuretic effect entry in data set [2] is recorded as “also exert potassium-retentive diuretic effect, they are, however, less effective than the compounds listed in Table 2”.
Compound `NC(N)=O` [Urea, reference compound] gave a Urine in [12] (960 mg/kg p.o.) of 11.54 ml/kgx5 hr.
With `Cc1cccc(C)c1N1CC(CC(N)=O)N(c2c(C)cccc2C)C1=N` (centres unmarked) [1,3-Bis(2',6'-dimethylphenyl)-2-imino-4-carboxamidomethyl-imidazolidine], in data set [1], the antiphlogistic effects result is on record as “significant antiphthlogistic effects”.
On to `CC(=O)S[C@@H]1CC2=CC(=O)CC[C@]2(C)[C@H]2CC[C@@]3(C)[C@@H](CC[C@@]34CCC(=O)O4)[C@H]12` [Spironolactone, reference compound], for which the results for the “Effects*” value in data set [2] (setting [16]) and in data set [2] (setting [15]) were 1.17 and 1.19, respectively.
Turning to `Cc1cccc(C)c1N1CC(C)N(c2c(C)cccc2C)C1=N` (centres unmarked) [1,3-Bis(2',6'-dimethylphenyl)-2-imino-4-methylimidazolidine], the “spontaneous activity of the longitudinal smooth muscle of guinea pig ileum” value in data set [13] was “increase the spontaneous activity”. Besides, in data set [14], the “spontaneous activity of isolated rat uterine horn” value is on record as “increase the spontaneous activity”. Besides, in data set [2], the potassium-retentive diuretic effect result was “also exert potassium-retentive diuretic effect, they are, however, less effective than the compounds listed in Table 2”.
On to `COc1ccc2c(c1)c(CC(=O)O)c(C)n2C(=O)c1ccc(Cl)cc1` [Indomethacine, reference compound], for which the median effective dose (ED50) in [7] (po) amounted to 20 mg/kg. Besides, in data set [8], the LD50 is 20 mg/kg.
Compound `CCOC(=O)NC(=S)N=C1N(c2c(C)cccc2C)CC(C)N1c1c(C)cccc1C` (centres unmarked) [1-(1',3'-Bis/2",6"-dimethylphenyl/-4'-methyl-imidazolidine-2'-ylidene)-3-carbethoxy-thiourea] displayed a Urine in [12] (25 mg/kg p.o.) of 11.16 ml/kgx5 hr. Moreover, the “diuretic effect / increase of urine excretion” value in data set [12] (rats, compared with urea) is “increases the urine excretion of rats to the same degree as urea”. Further, the “Effects*” value in data set [2] (setting [16]) was 1.02.
